Structures are written as SMILES. Where “and” joins values, the source holds several entries; their conditions need not be identical. Equal entries are not always repeated.

The nature of this data set: Pharmacokinetic trial: single 3 mg intravaginal dose of oxybutynin HCl delivered by the MedRing vaginal ring, plasma LC/MS/MS. The class given is in vivo, human (female subjects). An excerpt:
This trial investigated the feasibility of pulsed intra-vaginal delivery of oxybutynin and explored systemic exposure after application via the MedRing device.
The trial included female subjects of childbearing potential (women of childbearing potential, WOCBP) aged between 18 and 45 years (inclusive) and female postmenopausal subjects aged between 50 and 69 years (inclusive); Postmenopausal status is defined as age≥50 years and having >12 months amenorrhoea in the absence of hormonal therapy that may cause amenorrhoea.
Subjects began a 4-hour pre-dose fasting period before arriving to the clinic until 2 hours post-dose. Upon arrival, the subjects underwent pre-dose measurements to re-confirm eligibility for the study and to perform baseline measurements. The MedRing was inserted intra-vaginally by medically trained personnel. Water was allowed ad libitum. Subjects underwent blood sampling throughout the day. The MedRing was removed by medical study personnel 2 hours post dose in the first cohort. The MedRing was removed by medical personnel 6 hours post dose in the second cohort. The subjects went home approximately 8 hours post dose. The following day, the subjects of the second cohort returned to the clinic for an ambulant blood sample.
Plasma samples were also used for assessment of the concentrations of the metabolite, N-desethyloxybutynin.

For the molecule `CCNCC#CCOC(=O)C(O)(c1ccccc1)C1CCCCC1` (stereo not shown) [N-desethyloxybutynin], the “Area under the concentration-time curve to infinity (AUCinf) in plasma, mean (±SD)” value (3 mg oxybutynin HCl intravaginal via MedRing) is given as 51.1 (±43.1). Moreover, the “t1/2, mean (±SD)” value (3 mg oxybutynin HCl intravaginal via MedRing, plasma) turned out to be 7.7 h. In addition, under “3 mg oxybutynin HCl intravaginal via MedRing, post dose, plasma”, the “tmax, median (min-max)” value is 4 hours and 4 (3-5) hours. The “Cmax in plasma, mean (±standard deviation)” value (3 mg oxybutynin HCl intravaginal via MedRing, single dose, 8 female subjects) was found to be 3.9 ng/mL. The “plasma concentrations relative to known safety window” value (intravaginal via MedRing) is given as “well within the known safety window”. Also, the “plasma levels after 22 hours” value (second cohort (MedRing in situ 6 hours), 22-hour sample) is “found in all 4 subjects”.
Broadly, the AUC(0-inf) is the area under the concentration-time curve extrapolated to infinity. In general, Cmax refers to the highest concentration seen after dosing. The Tmax is the time from dosing to the highest level. In general, half-life refers to the time needed for the level to fall by half in the phase considered. As to `CCN(CC)CC#CCOC(=O)C(O)(c1ccccc1)C1CCCCC1` (stereo not shown) [oxybutynin], under “female, human, in vivo, 3 mg”, the AUC(0-inf) is 0.0349 µg·h/mL, the highest level (Cmax) was 5.4 ng/mL, the Tmax amounted to 2 h and the half-life is 8.5 h. Also, under “female, human, in vivo, 3 mg”, the “t1/2, mean (±SD)” value is 8.5 (±3.5) hours and the “tmax, median (min-max)” value is given as 2 (1-5) hours. The “plasma levels after 22 hours” value (female, human, in vivo, 22 h) is given as “found in all 4 subjects”.

For the origin of these results see patent US20240075005A1 (LIGALLI BV, priority 2021, published 2024).
